From patent US10689414B2 (Agios Pharmaceuticals, Inc., priority 2013, dated 2020)

Each compound was assayed on U87MG cells (assay: Cellular assay, inhibition of 2-HG production in U87MG cells). Details: Homo sapiens, U-87 MG, 48 h.
Type: cell-based
Outline: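 HT1080 or U87MG cells (U87MG kept with 500 ug/mL G418) seeded at 5000 cells/well and treated with compound at 0.2% final DMSO. Incubated 48 h at 37 °C. 2-HG inhibition determined by LC-MS. Viability read by CellTiter-Glo luminescence at 72 h post-dose.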

| SMILES | IC50 |
| --- | --- |
| N#Cc1ccnc(N2C(=O)CC[C@H]2C(=O)N(c2cccc(OCCO)c2)[C@H](C(=O)NC2CC(F)(F)C2)c2ccccc2Cl)c1 [Compound 130, (S)—N—((S)-1-(2-Chlorophenyl)-2-((3,3-difluorocyclobutyl)amino)-2-oxoethyl)-1-(4-cyanopyridin-2-yl)-N-(3-(2-hydroxyethoxy)phenyl)-5-oxopyrrolidine-2-carboxamide] | < 100 nM |
| N#Cc1ccnc(N2C(=O)CC[C@H]2C(=O)N(c2cccc(CO)c2)[C@H](C(=O)NC2CC(F)(F)C2)c2ccccc2Cl)c1 [Compound 131, (S)—N—((S)-1-(2-Chlorophenyl)-2-(3,3-difluorocyclobutylamino)-2-oxoethyl)-1-(4-cyanopyridin-2-yl)-N-(3-(hydroxymethyl)phenyl)-5-oxopyrrolidine-2-carboxamide] | < 100 nM |
| N#Cc1ccnc(N2C(=O)OC[C@H]2C(=O)N(c2cncc(F)c2)[C@H](C(=O)NC2CCC(F)(F)CC2)c2ccccc2Cl)c1 [Compound 132, (S)—N—((S)-1-(2-Chlorophenyl)-2-((4,4-difluorocyclohexyl)amino)-2-oxoethyl)-3-(4-cyanopyri-din-2-yl)-N-(5-fluoropyridin-3-yl)-2-oxooxazolidine-4-carboxamide] | < 100 nM |
| N#Cc1ccnc(N2C(=O)OCC[C@H]2C(=O)N(c2cc(F)cc(F)c2)[C@H](C(=O)NC2CC(F)(F)C2)c2ccccc2Cl)c1 [Compound 133, (S)—N—((S)-1-(2-Chlorophenyl)-2-((3,3-difluorocyclobutyl)amino)-2-oxoethyl)-3-(4-cyanopyridin-2-yl)-N-(3,5-difluorophenyl)-2-oxo-1,3-oxazinane-4-carboxamide] | < 100 nM |
| N#Cc1ccnc(N2C(=O)OC[C@H]2C(=O)N(c2cncc(F)c2)[C@H](C(=O)NC2CC(F)(F)C2)c2ccccc2Cl)c1 [Compound 135, (S)—N—((S)-1-(2-Chlorophenyl)-2-((3,3-difluorocyclobutyl)amino)-2-oxoethyl)-3-(4-cyanopyri-din-2-yl)-N-(5-fluoropyridin-3-yl)-2-oxooxazolidine-4-carboxamide] | < 100 nM |
| N#Cc1ccnc(N2C(=O)OCC[C@H]2C(=O)N(c2cncc(F)c2)[C@H](C(=O)NC2CCC(F)(F)CC2)c2ccccc2Cl)c1 [Compound 137, (S)—N—((S)-1-(2-Chlorophenyl)-2-((4,4-difluorocyclohexyl)amino)-2-oxoethyl)-3-(4-cyano-pyridin-2-yl)-N-(5-fluoropyridin-3-yl)-2-oxo-1,3-oxazinane-4-carboxamide] | < 100 nM |
| N#Cc1ccnc(N2C(=O)CC[C@H]2C(=O)N(c2cccc(F)c2)[C@H](C(=O)NC2CC(F)(F)C2)c2ccccc2)c1 [Compound 138, (S)-1-(4-Cyanopyridin-2-yl)-N—((S)-2-((3,3-difluorocyclobutyl)amino)-2-oxo-1-phenylethyl)-N-(3-fluorophenyl)-5-oxopyrrolidine-2-carboxamide] | < 100 nM |
| N#Cc1ccnc(N2C(=O)OCC[C@H]2C(=O)N(c2cc(F)cc(F)c2)[C@H](C(=O)NC2CCC(F)(F)CC2)c2ccccc2Cl)c1 [Compound 139, (S)—N—((S)-1-(2-Chlorophenyl)-2-((4,4-difluorocyclohexyl)amino)-2-oxoethyl)-3-(4-cyanopyridin-2-yl)-N-(3,5-difluorophenyl)-2-oxo-1,3-oxazinane-4-carboxamide] | < 100 nM |
| N#Cc1ccnc(N2C(=O)CC[C@H]2C(=O)N(c2cccc3[nH]cnc23)C(C(=O)NC2CCC(F)(F)CC2)c2ccccc2Cl)c1 (stereo partly drawn) [Compound 141, (2S)—N-(1H-benzo[d]imidazol-7-yl)-N-(1-(2-chlorophenyl)-2-((4,4-difluorocyclohexyl)amino)-2-oxoethyl)-1-(4-cyanopyridin-2-yl)-5-oxopyrrolidine-2-carboxamide] | < 100 nM |
| N#Cc1ccnc(N2C(=O)OCC[C@H]2C(=O)N(c2cncc(F)c2)[C@H](C(=O)NC2CC(F)(F)C2)c2ccccc2Cl)c1 [Compound 143, (S)—N—((S)-1-(2-Chlorophenyl)-2-((3,3-difluorocyclobutyl)amino)-2-oxoethyl)-3-(4-cyanopyridin-2-yl)-N-(5-fluoropyridin-3-yl)-2-oxo-1,3-oxazinane-4-carboxamide] | < 100 nM |
| N#Cc1ccnc(N2C(=O)OCC[C@H]2C(=O)N(c2cc(F)cc(F)c2)[C@H](C(=O)NC2CCC(F)(F)CC2)c2ccccc2Cl)n1 [Compound 144, (S)—N—((S)-1-(2-Chlorophenyl)-2-((4,4-difluorocyclohexyl)amino)-2-oxoethyl)-3-(4-cyanopyrimidin-2-yl)-N-(3,5-difluorophenyl)-2-oxo-1,3-oxazinane-4-carboxamide] | < 100 nM |
| CC(C)(O)c1cc(F)cc(N(C(=O)[C@@H]2CCOC(=O)N2c2cc(C#N)ccn2)[C@H](C(=O)NC2CC(F)(F)C2)c2ccccc2Cl)c1 [Compound 146, (S)—N—((S)-1-(2-Chlorophenyl)-2-(3,3-difluorocyclobutylamino)-2-oxoethyl)-3-(4-cyanopyridin-2-yl)-N-(3-fluoro-5-(2-hydroxypropan-2-yl)phenyl)-2-oxo-1,3-oxazinane-4-carboxamide] | < 100 nM |
| N#Cc1ccnc(N2C(=O)CC[C@H]2C(=O)N(c2cncc(F)c2)[C@H](C(=O)NC2CC(F)(F)C2)c2ccccc2)c1 [Compound 147, (S)-1-(4-Cyanopyridin-2-yl)-N—((S)-2-((3,3-difluorocyclobutyl)amino)-2-oxo-1-phenylethyl)-N-(5-fluoropyridin-3-yl)-5-oxopyrrolidine-2-carboxamide] | < 100 nM |
| N#Cc1ccnc(N2C(=O)CC[C@H]2C(=O)N(c2cncc(F)c2)[C@H](C(=O)NC2CC(F)(F)C2)c2ccccc2F)c1 [Compound 148, (S)-1-(4-Cyanopyridin-2-yl)-N—((S)-2-((3,3-difluorocyclobutyl)amino)-1-(2-fluorophenyl)-2-oxoethyl)-N-(5-fluoropyridin-3-yl)-5-oxopyrrolidine-2-carboxamide] | < 100 nM |
| N#Cc1ccnc(N2C(=O)CC[C@H]2C(=O)N(c2cccc(F)c2)[C@H](C(=O)NC2CC(F)(F)C2)c2ccccc2F)c1 [Compound 149, (S)-1-(4-Cyanopyridin-2-yl)-N—((S)-2-((3,3-difluorocyclobutyl)amino)-1-(2-fluorophenyl)-2-oxoethyl)-N-(3-fluorophenyl)-5-oxopyrrolidine-2-carboxamide] | < 100 nM |
| N#Cc1ccnc(N2C(=O)[C@H](F)C[C@H]2C(=O)N(c2cccc(F)c2)[C@H](C(=O)NC2CCC(F)(F)CC2)c2ccccc2Cl)c1 [Compound 151, (2S,4R)—N—((S)-1-(2-Chlorophenyl)-2-((4,4-difluorocyclohexyl)amino)-2-oxoethyl)-1-(4-cyanopyridin-2-yl)-4-fluoro-N-(3-fluorophenyl)-5-oxopyrrolidine-2-carboxamide] | < 100 nM |
| N#Cc1ccnc(N2C(=O)CC[C@H]2C(=O)N(c2cccc3[nH]ncc23)C(C(=O)NC2CC(F)(F)C2)c2ccccc2Cl)c1 (stereo partly drawn) [Compound 152, (2S)—N-(1-(2-Chlorophenyl)-2-((3,3-difluorocyclobutyl)amino)-2-oxoethyl)-1-(4-cyanopyridin-2-yl)-N-(1H-indazol-4-yl)-5-oxopyrrolidine-2-carboxamide] | < 100 nM |
| N#Cc1cc(C#N)cc(N(C(=O)[C@@H]2CCC(=O)N2c2cc(C#N)ccn2)[C@H](C(=O)NC2CC(F)(F)C2)c2ccccc2Cl)c1 [Compound 153, (S)—N—((S)-1-(2-Chlorophenyl)-2-((3,3-difluorocyclobutyl)amino)-2-oxoethyl)-1-(4-cyanopyridin-2-yl)-N-(3,5-dicyanophenyl)-5-oxopyrrolidine-2-carboxamide] | < 100 nM |
| N#Cc1ccnc(N2C(=O)OCC[C@H]2C(=O)N(c2cc(F)cc(F)c2)[C@H](C(=O)NC2CC(F)(F)C2)c2ccccc2Cl)n1 [Compound 154, (S)—N—((S)-1-(2-Chlorophenyl)-2-((3,3-difluorocyclobutyl)amino)-2-oxoethyl)-3-(4-cyanopyrimidin-2-yl)-N-(3,5-difluorophenyl)-2-oxo-1,3-oxazinane-4-carboxamide] | < 100 nM |
| CN(C)S(=O)(=O)c1cccc(N(C(=O)[C@@H]2CCC(=O)N2c2cc(C#N)ccn2)[C@H](C(=O)NC2CC(F)(F)C2)c2ccccc2Cl)c1 [Compound 156, (S)—N—((S)-1-(2-Chlorophenyl)-2-(3,3-difluorocyclobutylamino)-2-oxoethyl)-1-(4-cyanopyri-din-2-yl)-N-(3-(N,N-dimethylsulfamoyl)phenyl)-5-oxopyrrolidine-2-carboxamide] | < 100 nM |
| CNS(=O)(=O)c1cccc(N(C(=O)[C@@H]2CCC(=O)N2c2cc(C#N)ccn2)[C@H](C(=O)NC2CC(F)(F)C2)c2ccccc2Cl)c1 [Compound 157] | < 100 nM |
| N#Cc1ccnc(N2C(=O)CC[C@H]2C(=O)N(c2cc(F)cc(S(N)(=O)=O)c2)[C@H](C(=O)NC2CC(F)(F)C2)c2ccccc2Cl)c1 [Compound 158, (2S)—N-(1-(2-chlorophenyl)-2-(3,3-difluorocyclobutylamino)-2-oxo-ethyl)-1-(4-cyanopyridin-2-yl)-N-(3-fluoro-5-sulfamoylphenyl)-5-oxopyrrolidine-2-carboxamide] | < 100 nM |
| CS(=O)(=O)Nc1cccc(N(C(=O)[C@@H]2CCC(=O)N2c2cc(C#N)ccn2)[C@H](C(=O)NC2CC(F)(F)C2)c2ccccc2Cl)c1 [Compound 159, (S)—N—((S)-1-(2-Chlorophenyl)-2-(3,3-difluorocyclobutylamino)-2-oxoethyl)-1-(4-cyanopyridin-2-yl)-N-(3-(methylsulfonamido)phenyl)-5-oxopyrrolidine-2-carboxamide] | < 100 nM |

Same assay, conditions: inhibition of 2-HG production, U87MG cells, 48 hours

| SMILES | IC50 |
| --- | --- |
| N#Cc1ccnc(N2C(=O)CC[C@H]2C(=O)N(c2cccc(C3(O)CC3)c2)[C@H](C(=O)NC2CC(F)(F)C2)c2ccccc2Cl)c1 [Compound 140, (S)—N—((S)-1-(2-Xhlorophenyl)-2-(3,3-difluorocyclobutylamino)-2-oxoethyl)-1-(4-cyanopyridin-2-yl)-N-(3-(1-hydroxycyclopropyl)phenyl)-5-oxopyrrolidine-2-carboxamide] | < 100 nM |
